Article PMC12104674 (Frontiers in Pharmacology, 2025)
Like-named read-outs stand apart in the source and are kept apart here.

Tests used:
[1] = system: untreated HER2-positive metastatic breast cancer; conditions: cited from earlier work
[2] = Pyrotinib plasma pharmacokinetics with/without loperamide (Group B), LC-MS/MS, NCA; assay type: in vivo, healthy volunteers
Experimental: (§1) On day 1, all subjects received a single oral dose of 400 mg pyrotinib after breakfast. […] Subjects in Group B received a single oral dose of 400 mg pyrotinib and 4 mg loperamide after breakfast on day 9, followed by additional doses of 2 mg loperamide at 2 h and 4 h post-administration.
(§2) Blood samples were collected at baseline (within 30 min prior to drug administration) and at 1, 2, 3, 4, 5, 6, 7, 8, 10, 12, 24, 48, 72, and 96 h following pyrotinib administration on days 1 and 9 to measure the concentration of pyrotinib in the plasma. After completion of the study on day 13, subjects underwent a final examination and were subsequently discharged. A safety follow-up was conducted between days 16 and 19.
(§3) The analysis of plasma samples for pyrotinib was based on a validated and sensitive liquid chromatography-tandem mass spectrometry (LC-MS/MS) method with high specificity. The plasma samples were stored at −70°C and analyzed within a stability period of 176 days. The calibration range for the standard curve was between 1.00 and 500 ng/mL, and the regression equation used linear fitting with a weighting factor of W = 1/X^2 (bioanalysis method validation report, data on file). In each batch of analysis, the number of quality control (QC) samples accounted for more than 5% of the unknown samples in that batch. […] Representative chromatograms of pyrotinib at the LLOQ (lower limit of quantification) and in a plasma sample can be found in the Supplementary Material.
(§4) The individual pharmacokinetic parameters of pyrotinib would be calculated using non-compartmental analysis (NCA) and summarized by groups and combination status with descriptive statistics. To estimate the difference in the least-square means between the combination treatment and pyrotinib alone, a mixed-effects model was used to analyze the natural log-transformed pharmacokinetic parameters of pyrotinib (including AUC0- ∞ , AUC0-t, and Cmax) for each group. The model included treatment as a fixed effect and subject as a random effect. Results were exponentiated to obtain geometric least-squares means, geometric mean ratios, and corresponding 90% confidence intervals (CIs) on the original scale. […] To account for a 10% dropout rate, 18 subjects were planned for each of Groups A and B, resulting in a total of 36 subjects.

[3] = design: method as in data on file; conditions: healthy volunteers, ref data on file, cited from earlier work
[4] = Safety analysis (TEAEs), Group B; assay type: in vivo, healthy volunteers
Experimental: (§5) As summarized in Figure 1, the participants were divided into two groups: […] On day 1, all subjects received a single oral dose of 400 mg pyrotinib after breakfast. […] Subjects were instructed to have a light meal the night before the administration of the drug and to fast for 10 h overnight. Safety assessments included adverse events (AEs), physical examinations, vital signs, 12-lead ECGs, and clinical laboratory tests (hematology, serum chemistry, and urinalysis).

[5] = Pyrotinib plasma pharmacokinetics with/without montmorillonite powder (Group A), LC-MS/MS, NCA; assay type: in vivo, healthy volunteers; conditions: for Tmax: median (minimum, maximum); for Vd/F: read-out: Vz/F
Experimental: as §1, §2, §3, §4

[6] = Safety analysis (TEAEs), Group A; assay type: in vivo, healthy volunteers
Experimental: as §5

CYP3A4 [7] = system: CYP3A4; design: method as in Marechal et al., 2006; conditions: CYP3A4 inhibition; ref Marechal et al., 2006; cited from earlier work
albumin = conditions: of loperamide available in blood; cited from earlier work
CYP3A4 [8] = assay: Calculated R1 / R1,gut for reversible CYP3A4 inhibition by loperamide
[9] = cited from earlier work; for bioavailability: oral loperamide, significant first-pass effect, ref IMODIUM package insert (2016)
[10] = combination with loperamide/pyrotinib alone
[11] = with loperamide vs. pyrotinib alone
[12] = combination with montmorillonite powder/pyrotinib alone
[13] = human, plasma, oral, Group A, pyrotinib alone, 400 mg, day 1, geometric mean (geometric CV)
[14] = with montmorillonite powder 2 h after pyrotinib vs. pyrotinib alone

In the case of `CCOc1cc2ncc(C#N)c(Nc3ccc(OCc4ccccn4)c(Cl)c3)c2cc1NC(=O)/C=C/[C@H]1CCCN1C` [Pyrotinib], the “progression-free survival (PFS)” value ([1]; pyrotinib combined with trastuzumab and docetaxel, ref Ma et al., 2023) is given as 24.3 months, the “incidence of diarrhea grade 3 or higher” value ([1]; pyrotinib group (138/297), ref Ma et al., 2023) is given as 46% and the incidence of diarrhea ([1]; pyrotinib group (293/297), ref Ma et al., 2023) is given as 99%. For the same molecule, the “hazard ratio (PFS)” value ([1]; pyrotinib vs. placebo, each with trastuzumab and docetaxel, ref Ma et al., 2023) was 0.41, the duration of diarrhea ([1]; usually, ref Ma et al., 2023) was 2 to 3 days and the CL/F ([2]; Group B, 400 mg pyrotinib + loperamide 4+2+2 mg, day 9, geometric mean (geometric CV)) was 160 L/h. The CL/F ([2]; Group B, pyrotinib alone, 400 mg, day 1, geometric mean (geometric CV)) was 189 L/h, the CL/F ([2]; Group B, pyrotinib alone, 400 mg, day 1, geometric mean (geometric CV), listed as Pyrtonib) was 189 (26.7) L/h and the “geometric mean ratio (90% CI), AUC0-t” value [2, 10] was 1.18 (1.08, 1.28). For the same molecule, the “geometric mean ratio (90% CI), AUC0-∞” value [2, 10] was 1.19 (1.09, 1.29), the “geometric mean ratio (90% CI), Cmax” value [2, 10] was 0.946 (0.867, 1.03) and the AUC(0-t) ([2]; human, oral, Group B, 400 mg pyrotinib + 4 mg loperamide, then 2 mg loperamide at 2 and 4 h, day 9, plasma pyrotinib, geometric mean (geometric CV), read-out: AUC0-t) was 2430 ng·h/mL. For the same molecule, the AUC(0-inf) ([2]; human, plasma, oral, 400 mg, Group B, pyrotinib alone, 400 mg, day 1, geometric mean (geometric CV), read-out: AUC0-∞) was 2110 ng·h/mL, the AUC(0-t) ([2]; human, plasma, oral, 400 mg, Group B, pyrotinib alone, mixed-effects model, read-out: Geometric least-square mean AUC0-t) was 2060 ng·h/mL and the AUC(0-inf) ([2]; human, plasma, oral, 400 mg, Group B, pyrotinib alone, mixed-effects model, read-out: Geometric least-square mean AUC0-∞) was 2110 ng·h/mL. It also gave an AUC(0-inf) ([2]; human, plasma, oral, Group B, 400 mg pyrotinib + loperamide 4+2+2 mg, day 9, geometric mean (geometric CV), read-out: AUC0-∞) of 2500 ng·h/mL, a Cmax ([2]; human, plasma, oral, Group B, pyrotinib alone, 400 mg, day 1, geometric mean (geometric CV)) of 124 ng/mL and a Vd/F ([2]; human, plasma, oral, Group B, pyrotinib alone, 400 mg, day 1, geometric mean (geometric CV), read-out: Vz/F) of 4520 L. It also gave a half-life ([2]; human, plasma, oral, Group B, pyrotinib alone, 400 mg, day 1, mean (SD)) of 17.3 h, a Tmax ([2]; human, plasma, oral, Group B, pyrotinib alone, 400 mg, day 1, median (minimum, maximum)) of 4.98 h and an AUC(0-t) ([2]; human, Group B, pyrotinib alone, single oral 400 mg after breakfast, day 1, plasma pyrotinib, geometric mean (geometric CV), read-out: AUC0-t) of 2060 ng·h/mL. For the same molecule, the “change in median Tmax of pyrotinib” value [2, 11] was “no significant change”, the “decrease in Cmax of pyrotinib” value [2, 11] was “approximately 5.4%” and the “increase in AUC0-t of pyrotinib” value [2, 11] was “approximately 18%”. For the same molecule, the “increase in AUC0-∞ of pyrotinib” value [2, 11] was ~19%, the “time to peak concentration” value ([3]; oral 400 mg pyrotinib) was “approximately 5 h” and the elimination half-life [3] was “approximately 18 h”. For the same molecule, the incidence of hypertriglyceridemia ([4]; Group B) was 22.2%, the incidence of hyperuricemia ([4]; Group B) was 11.1% and the “incidence of oral ulcer” value ([4]; Group B) was 11.1%. For the same molecule, the incidence of rash ([4]; Group B) was 11.1%, the serious adverse events ([4]; Group B) was “No serious adverse events” and the “number of treatment-emergent adverse events (TEAEs)” value ([4]; Group B (N = 18)) was 18. For the same molecule, the “subjects who experienced TEAEs” value ([4]; Group B (N = 18), pyrotinib 400 mg day 1 and pyrotinib + loperamide day 9) was 12 subjects, the “incidence of each other TEAE” value ([4]; Group B, nausea, abdominal distension, PR interval prolongation on ECG, increased heart rate, increased total bile acid, headache, dizziness (each)) was 5.6% and the CL/F ([5]; Group A, 400 mg pyrotinib then 3 g montmorillonite powder 2 h later, day 9, geometric mean (geometric CV)) was 315 L/h. The CL/F ([5]; Group A, pyrotinib alone, 400 mg, day 1, geometric mean (geometric CV)) was 213 L/h, the CL/F ([5]; Group A, pyrotinib alone, 400 mg, day 1, geometric mean (geometric CV), listed as Pyrtonib) was 213 (40.5) L/h and the “geometric mean ratio (90% CI), AUC0-t” value [5, 12] was 0.669 (0.601, 0.745). For the same molecule, the “geometric mean ratio (90% CI), AUC0-∞” value [5, 12] was 0.676 (0.610, 0.749), the “geometric mean ratio (90% CI), Cmax” value [5, 12] was 0.733 (0.670, 0.803) and the half-life ([5]; human, plasma, oral) was 16.3 h. The AUC(0-inf) ([5]; human, plasma, oral, 400 mg, Group A, pyrotinib alone, 400 mg, day 1, geometric mean (geometric CV), read-out: AUC0-∞) was 1880 ng·h/mL, the Tmax ([5]; human, plasma, oral, 400 mg, Group A, pyrotinib alone, 400 mg, day 1) was 5 h and the AUC(0-t) ([5]; human, plasma, oral, 400 mg, Group A, pyrotinib alone, mixed-effects model, read-out: Geometric least-square mean AUC0-t) was 1830 ng·h/mL. The AUC(0-inf) ([5]; human, plasma, oral, 400 mg, Group A, pyrotinib alone, mixed-effects model, read-out: Geometric least-square mean AUC0-∞) was 1880 ng·h/mL, the AUC(0-inf) ([5]; human, plasma, oral, Group A, 400 mg pyrotinib then 3 g montmorillonite powder 2 h later, day 9, geometric mean (geometric CV), read-out: AUC0-∞) was 1270 ng·h/mL and the Tmax ([5]; human, plasma, oral, Group A, 400 mg pyrotinib then 3 g montmorillonite powder 2 h later, day 9) was 3.51 h. For the same molecule, the decrease in Tmax ([5]; human, plasma, oral, with montmorillonite powder vs. pyrotinib alone, read-out: time to maximum concentration earlier by) was 1.5 h, the Cmax [5, 13] was 105 ng/mL and the Vd/F [5, 13] was 4580 L. For the same molecule, the half-life ([5]; human, plasma, oral, Group A, pyrotinib alone, 400 mg, day 1, mean (SD)) was 15.5 h, the Vd/F ([5]; human, plasma, oral) was 7120 L and the AUC(0-t) ([5]; human, Group A, pyrotinib alone, single oral 400 mg after breakfast, day 1, plasma pyrotinib, geometric mean (geometric CV), read-out: AUC0-t) was 1840 ng·h/mL. For the same molecule, the “reduction in exposure of pyrotinib” value ([5]; montmorillonite powder at 2-h interval) was 33%, the “decrease in AUC0-t of pyrotinib” value [5, 14] was 33.1% and the “decrease in AUC0-∞ of pyrotinib” value [5, 14] was 32.4%. The “decrease in Cmax of pyrotinib” value [5, 14] was 26.7%, the “change in t1/2 of pyrotinib” value ([5]; with montmorillonite powder vs. pyrotinib alone) was “no significant change” and the incidence of hypertriglyceridemia ([6]; Group A) was 11.1%. The serious adverse events ([6]; Group A) was “No serious adverse events”, the “number of treatment-emergent adverse events (TEAEs)” value ([6]; Group A (N = 18)) was 11 and the “subjects who experienced TEAEs” value ([6]; Group A (N = 18), pyrotinib 400 mg day 1 and pyrotinib + montmorillonite powder day 9) was “eight”. For the same molecule, the “severity of TEAEs” value ([6]; Group A, all TEAEs) was “mild (Grade 1)” and the “incidence of each other TEAE” value ([6]; Group A, hypercholesterolemia, nausea, abdominal distension, ALT elevation, AST elevation, bradycardia, elevated blood bilirubin, upper respiratory tract infection, orthostatic hypotension (each)) was 5.6%.

For `CN(C)C(=O)C(CCN1CCC(O)(c2ccc(Cl)cc2)CC1)(c1ccccc1)c1ccccc1` [loperamide], the “median PFS by antidiarrheal used in diarrhea management” value ([1]; ad hoc analysis, ref data on file) is listed as 19.5 months, the IC50 (CYP3A4 [7]) is listed as […] and the “fraction bound to albumin” value (albumin) is listed as 95%. For the same molecule, the “calculated R1 for reversible inhibition” value (CYP3A4 [8]; CYP3A4) was “less than 1.0001”, the “calculated R1,gut” value (CYP3A4 [8]; based on molecular weight of 477 Dalton, guidance cut off 11) was 1,342.7 and the maximum concentration ([9]; after 4 mg oral administration, ref Niemi et al., 2006) was […]. For the same molecule, the bioavailability [9] was 0.3% and the bioavailability ([9]; listed as Loperamide) was “about 0.3%”.
